Consider nine molecules from patent US8501772B2, “3,8-diaminotetrahydroquinoline derivative” (Zeria Pharmaceutical Co., Ltd., priority 2008, dated 2013).

SMILES strings stand for the structures. Counter-ions that a name gives are not always drawn.

One data set has as its target T1, human GHS-R1a (Homo sapiens, UniProt Q92847).
T1 construct: expressed in transfected cells
Description: Agonistic activity by use of a cell line stably expressing human GHS-R1a (intracellular calcium increase). Type of data set: cell-based. To be noted: hGHS-R1a/CHO cells, percent increase in intracellular calcium vs 100 nM ghrelin; read-out: GHS-R agonistic activity (EC50: nM). The method, then:
CHO-K1 cells were transfected with human GHS-R1a genes, to thereby provide cells stably expressing GHS-R1a (hGHS-R1a/CHO), and the agonistic activity of each compound was evaluated by use of the cells based on percent increase in intracellular calcium as an index.
The hGHS-R1a/CHO cells were inoculated at 6×10^4 cells/well in a 96-well plate (Clear bottom/Black plate, product of Corning), and cultured in Ham's F12 medium containing 10% fetal bovine serum at 37° C. and 5% CO2 for 18 hours. After culture, the medium was removed, and then the hGHS-R1a/CHO cells were cultured for two hours in a Hanks' balanced salt solution/HEPES (HBSS/HEPES, 100 μL) containing a calcium fluorescent indicator (4 μM Fluo-3AM, product of Dojin), 2 mM Probenecid, 0.1% Pluronic F-127, and 0.1% BSA, whereby the indicator was incorporated into the cells. After washing the cells, HBSS/HEPES (175 μL/well) containing 2 mM Probenecid and 0.1% BSA was added to the plate, and the fluorescence before and after addition of each test compound was determined by means of FLEXstation (Ex: 485 nm, Em: 525 nm, product of Molecular Devices). Each test compound was multi-fold diluted with dimethyl sulfoxide and then diluted with HBSS/HEPES containing 2 mM Probenecid, 0.04% Pluronic F-127, and 0.1% BSA, to thereby attain a final concentration of interest. The thus-diluted solution (25 μL/well) was added to the wells.
Agonistic activity(%)=(A−B)/(C−D)×100
A: Fluorescence intensity after addition of test compound
B: Fluorescence intensity before addition of test compound
C: Fluorescence intensity after addition of 100 nM ghrelin
D: Fluorescence intensity before addition of ghrelin

Data set [1] can be described thus: Bioavailability in male rats. It is filed as in vivo. To be noted: rat, plasma, oral, intravenous 1 or 3 mg/kg, peroral 30 mg/kg, n=3, read-out: bioavailability (BA). As for the experimental part:
(§1) A test compound was administered to male rats intravenously (1 or 3 mg/kg) or perorally (30 mg/kg), and to male beagles intravenously or perorally (3 mg/kg). After administration, blood was collected at designated times, to thereby obtain plasma samples.

A further data set concerns beagles. Description: Toxicity test: single oral administration to dogs. Type of data set: in vivo. The settings on record: male beagles, single peroral. As for the experimental part:
An encapsulated test drug was forcedly administered to beagles, and acute toxicity of the drug was studied.
Compound of Example 34a was singly perorally administered to male beagles at a dose of 30 and 100 mg/kg. […] General conditions of the beagles were observed, and hematologic and blood biochemical tests were carried out.

Data set [2] can be described thus: Distribution in the brain (brain-to-plasma partition coefficient). Type of data set: in vivo. The settings on record: rat, male rats, intravenous bolus then constant-rate infusion, steady state. As for the experimental part: Under anesthesia, a test drug was intravenously administered to male rats (1 to 4 mg/kg) and then intravenously administered (14 to 95 μg/kg) at a constant rate. At two hours after starting the infusion, when a steady state was thought to have been reached, the whole blood was collected from each rat and the brain was excised. The concentrations of test drug in brain samples and plasma samples were determined using LC-MS/MS, and the brain-to-plasma partition coefficient (Kp value) was calculated (n=6 or 9).

Data set [3] can be described thus: Bioavailability in male beagles. It is filed as in vivo. To be noted: beagle, dog, plasma, po; male beagles (dogs), intravenous or peroral 3 mg/kg, n=3; read-out: bioavailability (BA). As for the experimental part: as §1
Data set [4] relates to model rats with IL-1β-induced cachexia. Kind of data set: Improvement of cachexia induced by IL-1β. It is filed as in vivo. The settings on record: SD rats, rmIL-1β into cerebral ventricle, peroral 100 mg/kg. The text has this:
By use of model rats with IL-1β-induced cachexia, the effects of a test compound on ameliorating reduction in body weight and in food intake were examined.
SD rats (male, 8-week old, 270 to 340 g, Japan Charles River) were conditioned in a cage (one rat/cage), and were allowed water and a diet (CRF-1, product of Oriental Yeast Co., Ltd.) ad libitum. The illumination conditions employed in the house were as follows: 10:30 to 22:30 (dark) and 22:30 to 10:30 (light).
An osmotic pump (Mini-Osmotic Pump Model 2001, product of ALZET, filled with saline) was connected to a canula, and the canula was inserted into the cerebral ventricle of a rat. The rats obtained were conditioned for three days, and the osmotic pump was changed to another osmotic pump filled with recombinant mouse IL-1β (rmIL-1β). By means of the pump, rmIL-1β was continuously injected into the cerebral ventricle ([…]), to thereby induce cachexia. Two days after starting of injection of IL-1β, a test compound dissolved in 0.5% methylcellulose solution was perorally administered to each rat just before switching-off the light. During the period of administration of the test compound, the body weight and the food intake were measured every 24 hours.

For the next data set, the target named is T2, CYP3A4 (Homo sapiens, UniProt P08684).
T2 construct: determined by use of human liver microsomes based on the midazolam hydroxylation activity as an index; from tissue; host or cells: human liver microsomes
T2 sequence (P08684 whole entry): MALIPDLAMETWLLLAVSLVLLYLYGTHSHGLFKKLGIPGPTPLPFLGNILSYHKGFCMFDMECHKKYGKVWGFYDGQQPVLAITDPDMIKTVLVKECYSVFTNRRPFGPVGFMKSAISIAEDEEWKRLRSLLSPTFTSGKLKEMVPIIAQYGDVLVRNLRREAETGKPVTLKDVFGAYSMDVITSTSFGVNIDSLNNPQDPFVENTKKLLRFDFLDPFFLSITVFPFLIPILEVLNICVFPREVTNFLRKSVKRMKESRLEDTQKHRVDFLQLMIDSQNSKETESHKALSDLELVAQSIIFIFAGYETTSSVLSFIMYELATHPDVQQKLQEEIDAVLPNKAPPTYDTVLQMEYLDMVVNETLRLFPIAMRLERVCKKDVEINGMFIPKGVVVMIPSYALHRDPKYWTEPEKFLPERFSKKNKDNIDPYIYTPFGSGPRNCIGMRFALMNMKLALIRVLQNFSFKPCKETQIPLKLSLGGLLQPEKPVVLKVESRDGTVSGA
Description: CYP3A4 inhibitory activity, human liver microsomes, midazolam hydroxylation. It is filed as in vitro ADME. The method, then: The in vitro CYP3A4 inhibitory activity was determined by use of human liver microsomes based on the midazolam hydroxylation activity as an index, and the Ki values were calculated.

T1 sequence (Q92847 whole entry): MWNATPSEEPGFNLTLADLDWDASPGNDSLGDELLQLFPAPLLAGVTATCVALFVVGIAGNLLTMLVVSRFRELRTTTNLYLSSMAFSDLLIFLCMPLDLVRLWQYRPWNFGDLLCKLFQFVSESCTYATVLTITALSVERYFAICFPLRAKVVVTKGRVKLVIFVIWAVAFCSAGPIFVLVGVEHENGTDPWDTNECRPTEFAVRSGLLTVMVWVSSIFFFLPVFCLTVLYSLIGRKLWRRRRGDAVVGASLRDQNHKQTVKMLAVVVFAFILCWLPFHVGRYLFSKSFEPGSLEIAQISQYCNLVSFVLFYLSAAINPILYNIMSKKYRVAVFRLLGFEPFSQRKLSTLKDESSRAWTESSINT

With `CN(C)N(C)C(=O)[C@@]1(Cc2ccccc2)CCCN(C(=O)[C@@H](Cc2c[nH]c3ccccc23)NC(=O)C(C)(C)N)C1` [Anamorelin hydrochloride, anamorelin hydrochloride, reference compound], the half-maximal effective concentration (EC50) on human GHS-R1a was 0.15 nM. In addition, the figures for the bioavailability in data set [1] and in data set [3] were 21% and 19%, respectively. Besides, in the data set with beagles (30 mg/kg), the “acute toxicity, general conditions” value was “serious anomalous disorders in general conditions such as vomiting, infrequent pulse, tremble, and disorders in walking”. In addition, the Kp at 2 h in data set [2] is 0.42.

`CC(C)C[C@@H](NC(=O)C(C)(C)N)C(=O)NC1Cc2cccc(N3CCCC3=O)c2N(Cc2ccsc2)C1=O` (stereo partly drawn) [Example 34a, (2R)-2-(2-amino-2-methylpropanamido)-4-methyl-N-[2-oxo-8-(2-oxopyrrolidin-1-yl)-1-(thiophen-3-ylmethyl)-1,2,3,4-tetrahydroquinolin-3-yl]pentanamide hydrochloride]: the concentration giving a half-maximal response (EC50) at human GHS-R1a came to 0.38 nM. For the same molecule, the bioavailability amounted to 35% in data set [1] and 84% in data set [3]. In addition, in data set [4], the “reduction in body weight caused by IL-1β” value is given as “significantly suppressed”. The “reduction in food intake caused by IL-1β” value in data set [4] is listed as “significantly suppressed”. Also, the “acute toxicity, general conditions” value in the data set with beagles (maximum dose 100 mg/kg) was “only slight vomiting”. The molecule further gave an inhibition constant Ki on CYP3A4 of 86000 nM. In addition, in data set [2], the Kp at 2 h turned out to be 0.06.

For the molecule `CN(C)c1cccc2c1N(Cc1ccccn1)C(=O)C(NC(=O)[C@H](NC(=O)C(C)(C)N)c1ccccc1)C2` (stereo partly drawn) [Example 41, 2-Amino-N-((1R)-2-(8-(dimethylamino)-2-oxo-1-(pyridin-2-ylmethyl)-1,2,3,4-tetrahydroquinolin-3-ylamino)-2-oxo-1-phenylethyl)-2-methylpropanamide hydrochloride], the EC50 on human GHS-R1a amounted to 11.3 nM.

Consider `CC(C)C[C@@H](NC(=O)C(C)(C)N)C(=O)NC1Cc2cccc(N3CCCC3=O)c2N(Cc2ccsc2)C1=O` (stereo partly drawn) [Example 34l, (2R)-2-(2-amino-2-methylpropanamido)-4-methyl-N-[2-oxo-8-(2-oxopyrrolidin-1-yl)-1-(thiophen-3-ylmethyl)-1,2,3,4-tetrahydroquinolin-3-yl]pentanamide(S)-(+)-mandelate], for which, on human GHS-R1a, the concentration for a half-maximal effect (EC50) stood at 0.37 nM.

Consider `CCN(CC)c1cccc2c1N(Cc1ccccn1)C(=O)C(NC(=O)[C@@H](CC(C)C)NC(=O)CC(C)(C)N)C2` (stereo partly drawn) [Example 47, (2R)-2-(3-Amino-3-methylbutanamido)-N-[8-(diethylamino)-2-oxo-1-(pyridin-2-ylmethyl)-1,2,3,4-tetrahydroquinolin-3-yl]-4-methylpentanamide hydrochloride], for which the concentration giving a half-maximal response (EC50) on human GHS-R1a came out at 18.2 nM.

Regarding `CC(C)C[C@@H](NC(=O)C(C)(C)N)C(=O)NC1Cc2cccc(N3C(=O)CCC3=O)c2N(Cc2ccccc2)C1=O` (stereo partly drawn) [Example 37, (2R)-2-(2-Amino-2-methylpropanamido)-N-[1-benzyl-8-(2,5-dioxopyrrolidin-1-yl)-2-oxo-1,2,3,4-tetrahydroquinolin-3-yl]-4-methylpentanamide hydrochloride], on human GHS-R1a, the EC50 is 1 nM.

With `CC(C)C[C@@H](NC(=O)C(C)(C)N)C(=O)NC1Cc2cccc(N3CCCCC3=O)c2N(Cc2ccccc2)C1=O` (stereo partly drawn) [Example 36, (2R)-2-(2-Amino-2-methylpropanamido)-N-[1-benzyl-2-oxo-8-(2-oxopiperidin-1-yl)-1,2,3,4-tetrahydroquinolin-3-yl]-4-methylpentanamide hydrochloride], the 50% effective concentration (EC50) at human GHS-R1a was 1.1 nM.

As to `CC(C)(N)C(=O)N[C@H](Cc1c[nH]c2ccccc12)C(=O)NC1Cc2cccc(N3CCCC3=O)c2N(Cc2ccccc2)C1=O` (stereo partly drawn) [Example 38, 2-Amino-N-[(2R)-1-[1-benzyl-2-oxo-8-(2-oxopyrrolidin-1-yl)-1,2,3,4-tetrahydroquinolin-3-ylamino]-3-(1H-indol-3-yl)-1-oxopropan-2-yl]-2-methylpropanamide hydrochloride], the EC50 at human GHS-R1a was found to be 0.1 nM.

As for `CC(=O)Nc1cccc2c1N(Cc1ccccn1)C(=O)C(NC(=O)[C@@H](CC(C)C)NC(=O)C(C)(C)N)C2` (stereo partly drawn) [Example 40, (2R)—N-(8-Acetamido-2-oxo-1-(pyridin-2-ylmethyl)-1,2,3,4-tetrahydroquinolin-3-yl)-2-(2-amino-2-methylpropanamido)-4-methylpentanamide], the EC50 on human GHS-R1a was found to be 80 nM.
